Measured values reported in patent US20150105252A1, “SUBSTITUTED PYRAZOLES AS HERBICIDES” (E I DU PONT DE NEMOURS AND COMPANY, priority 2013, published 2015).

Experiments:
foxtail, giant [1] = test: Test A preemergence; format: in vivo, Setaria faberii; conditions: preemergence
Summary of the method: (§1)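 Pre- and postemergence greenhouse test; loam+sand; cpd in non-phytotox. solvent/surfactant; post at 1–2 leaf, 2–10 cm; visual score ~10 d, 0 = none, 100 = complete control.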

foxtail, giant [2] = test: Test A postemergence; format: in vivo, Setaria faberii
Summary of the method: as §1

corn = test: Test A preemergence; format: in vivo, Zea mays; conditions: preemergence
Summary of the method: as §1

morningglory = test: Test A postemergence; format: in vivo, Ipomoea spp.
Summary of the method: as §1

wheat = test: Test A postemergence; format: in vivo, Triticum aestivum
Summary of the method: as §1

barnyardgrass = test: Test A preemergence; format: in vivo, Echinochloa crus-galli; conditions: preemergence
Summary of the method: as §1

[3] = 125 g ai/ha, visual injury, 0 to 100 scale, approx. 10 days
[4] = 500 g ai/ha, visual injury after approx. 10 days, 0 to 100 scale (0 no effect, 100 complete control)
[5] = Postemergence, 500 g ai/ha, 0 to 100 scale (0 no effect, 100 complete control)
[6] = postemergence, 125 g ai/ha, about 10 days, visual rating on 0 to 100 scale (0 no effect, 100 complete control)
[7] = 125 g ai/ha, visual injury approx. 10 days after treatment

| Structure (SMILES) | Foxtail, Giant plant response rating (foxtail, giant [1]; [3]) | Foxtail, Giant plant response rating (foxtail, giant [1]; [4]) | Foxtail, Giant plant response rating (foxtail, giant [2]; [5]) | Foxtail, Giant plant response rating (foxtail, giant [2]; [6]) | Corn plant response rating (corn; [3]) | Corn plant response rating (corn; [4]) | Morningglory plant response rating (morningglory; [5]) | Morningglory plant response rating (morningglory; [6]) | Wheat plant response rating (wheat; [5]) | Wheat plant response rating (wheat; [6]) | Barnyardgrass plant response rating (barnyardgrass; [3]) | Barnyardgrass plant response rating (barnyardgrass; [4]) | Foxtail, Giant plant response rating (0 to 100 scale) (foxtail, giant [1]; [7]) | Wheat plant response rating (wheat; Postemergence, 125 g ai/ha, 0 to 100 scale, 0 no effect, 100 complete control) | Barnyardgrass plant response rating (0 to 100 scale, 0 is no effect, 100 is complete control) (barnyardgrass; [7]) |
| --- | --- | --- | --- | --- | --- | --- | --- | --- | --- | --- | --- | --- | --- | --- | --- |
| CCCc1cc(C(=O)NCC(F)(F)F)nn1Cc1cc(C(F)(F)F)nn1C [Compound 138] | 100 | 100 | 100 | 100 | 10 | 90 | 100 | 80 | 90 | 80 | 100 | 100 | – | – | – |
| CCc1cc(C(=O)NCC(F)(F)F)nn1Cc1cc(OC(F)F)nn1C [Compound 206] | – | 100 | 80 | 0 | – | – | – | – | 20 | – | – | 90 | 0 | 10 | 0 |
